The target of data set [1] is KDAC1 (histone deacetylase 1) (Homo sapiens, UniProt Q13547). The data set is described as follows: Inhibition of full length human C-terminal FLAG/His-tagged KDAC1 expressed in baculovirus expression system at 30 uM using substrate A after 60 mins by microfluidic assay relative to control. Particulars: probe substrate A.
Data set [2] deals with T1, Histone deacetylase 8 (Schistosoma mansoni) (UniProt A5H660).
T1 sequence (whole entry): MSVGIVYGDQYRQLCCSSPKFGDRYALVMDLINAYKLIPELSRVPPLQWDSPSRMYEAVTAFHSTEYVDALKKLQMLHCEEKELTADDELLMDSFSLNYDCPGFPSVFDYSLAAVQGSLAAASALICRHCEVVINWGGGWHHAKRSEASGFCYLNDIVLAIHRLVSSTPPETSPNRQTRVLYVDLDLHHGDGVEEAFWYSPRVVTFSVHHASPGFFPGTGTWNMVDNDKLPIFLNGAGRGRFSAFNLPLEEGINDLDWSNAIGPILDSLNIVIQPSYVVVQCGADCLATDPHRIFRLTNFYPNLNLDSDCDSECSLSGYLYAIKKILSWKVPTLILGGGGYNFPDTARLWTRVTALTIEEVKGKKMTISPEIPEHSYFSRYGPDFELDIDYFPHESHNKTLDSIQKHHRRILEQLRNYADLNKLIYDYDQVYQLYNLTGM
The data set is described as follows: Inhibition of Schistosoma mansoni KDAC8 at 30 uM using (FAM)-labeled peptide as substrate after 60 mins by microfluidic assay.

The target in data set [3] is KDAC3/NCOR2 (histone deacetylase 3/nuclear receptor corepressor 2 complex) (Homo sapiens, UniProt O15379). The data set is described as follows: (§1) Inhibition of full length human C-terminal His-tagged KDAC3/N-terminal GST-tagged human NCOR2 (395 to 489 residues) expressed in baculovirus expression system at 30 uM using FITC-p53 acetylated peptide as substrate after 60 mins by microfluidic assay. Particulars: probe FITC-p53 acetylated peptide.
KDAC3/NCOR2 (histone deacetylase 3/nuclear receptor corepressor 2 complex), sequence (O15379 whole entry, the tested form may be a part): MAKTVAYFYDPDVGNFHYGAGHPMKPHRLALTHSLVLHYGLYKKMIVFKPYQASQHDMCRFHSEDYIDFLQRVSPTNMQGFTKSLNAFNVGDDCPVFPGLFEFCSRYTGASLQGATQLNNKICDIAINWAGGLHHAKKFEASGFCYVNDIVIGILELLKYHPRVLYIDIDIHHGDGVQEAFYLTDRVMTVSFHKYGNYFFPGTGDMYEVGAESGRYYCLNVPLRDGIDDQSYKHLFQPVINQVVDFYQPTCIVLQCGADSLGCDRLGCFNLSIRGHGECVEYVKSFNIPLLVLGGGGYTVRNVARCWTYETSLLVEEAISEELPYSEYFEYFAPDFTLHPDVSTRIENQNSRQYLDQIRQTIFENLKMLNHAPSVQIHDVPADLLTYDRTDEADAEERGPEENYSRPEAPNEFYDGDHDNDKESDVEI
KDAC3/NCOR2 (histone deacetylase 3/nuclear receptor corepressor 2 complex), sequence (Q9Y618 whole entry, further chain, the tested form may be a part): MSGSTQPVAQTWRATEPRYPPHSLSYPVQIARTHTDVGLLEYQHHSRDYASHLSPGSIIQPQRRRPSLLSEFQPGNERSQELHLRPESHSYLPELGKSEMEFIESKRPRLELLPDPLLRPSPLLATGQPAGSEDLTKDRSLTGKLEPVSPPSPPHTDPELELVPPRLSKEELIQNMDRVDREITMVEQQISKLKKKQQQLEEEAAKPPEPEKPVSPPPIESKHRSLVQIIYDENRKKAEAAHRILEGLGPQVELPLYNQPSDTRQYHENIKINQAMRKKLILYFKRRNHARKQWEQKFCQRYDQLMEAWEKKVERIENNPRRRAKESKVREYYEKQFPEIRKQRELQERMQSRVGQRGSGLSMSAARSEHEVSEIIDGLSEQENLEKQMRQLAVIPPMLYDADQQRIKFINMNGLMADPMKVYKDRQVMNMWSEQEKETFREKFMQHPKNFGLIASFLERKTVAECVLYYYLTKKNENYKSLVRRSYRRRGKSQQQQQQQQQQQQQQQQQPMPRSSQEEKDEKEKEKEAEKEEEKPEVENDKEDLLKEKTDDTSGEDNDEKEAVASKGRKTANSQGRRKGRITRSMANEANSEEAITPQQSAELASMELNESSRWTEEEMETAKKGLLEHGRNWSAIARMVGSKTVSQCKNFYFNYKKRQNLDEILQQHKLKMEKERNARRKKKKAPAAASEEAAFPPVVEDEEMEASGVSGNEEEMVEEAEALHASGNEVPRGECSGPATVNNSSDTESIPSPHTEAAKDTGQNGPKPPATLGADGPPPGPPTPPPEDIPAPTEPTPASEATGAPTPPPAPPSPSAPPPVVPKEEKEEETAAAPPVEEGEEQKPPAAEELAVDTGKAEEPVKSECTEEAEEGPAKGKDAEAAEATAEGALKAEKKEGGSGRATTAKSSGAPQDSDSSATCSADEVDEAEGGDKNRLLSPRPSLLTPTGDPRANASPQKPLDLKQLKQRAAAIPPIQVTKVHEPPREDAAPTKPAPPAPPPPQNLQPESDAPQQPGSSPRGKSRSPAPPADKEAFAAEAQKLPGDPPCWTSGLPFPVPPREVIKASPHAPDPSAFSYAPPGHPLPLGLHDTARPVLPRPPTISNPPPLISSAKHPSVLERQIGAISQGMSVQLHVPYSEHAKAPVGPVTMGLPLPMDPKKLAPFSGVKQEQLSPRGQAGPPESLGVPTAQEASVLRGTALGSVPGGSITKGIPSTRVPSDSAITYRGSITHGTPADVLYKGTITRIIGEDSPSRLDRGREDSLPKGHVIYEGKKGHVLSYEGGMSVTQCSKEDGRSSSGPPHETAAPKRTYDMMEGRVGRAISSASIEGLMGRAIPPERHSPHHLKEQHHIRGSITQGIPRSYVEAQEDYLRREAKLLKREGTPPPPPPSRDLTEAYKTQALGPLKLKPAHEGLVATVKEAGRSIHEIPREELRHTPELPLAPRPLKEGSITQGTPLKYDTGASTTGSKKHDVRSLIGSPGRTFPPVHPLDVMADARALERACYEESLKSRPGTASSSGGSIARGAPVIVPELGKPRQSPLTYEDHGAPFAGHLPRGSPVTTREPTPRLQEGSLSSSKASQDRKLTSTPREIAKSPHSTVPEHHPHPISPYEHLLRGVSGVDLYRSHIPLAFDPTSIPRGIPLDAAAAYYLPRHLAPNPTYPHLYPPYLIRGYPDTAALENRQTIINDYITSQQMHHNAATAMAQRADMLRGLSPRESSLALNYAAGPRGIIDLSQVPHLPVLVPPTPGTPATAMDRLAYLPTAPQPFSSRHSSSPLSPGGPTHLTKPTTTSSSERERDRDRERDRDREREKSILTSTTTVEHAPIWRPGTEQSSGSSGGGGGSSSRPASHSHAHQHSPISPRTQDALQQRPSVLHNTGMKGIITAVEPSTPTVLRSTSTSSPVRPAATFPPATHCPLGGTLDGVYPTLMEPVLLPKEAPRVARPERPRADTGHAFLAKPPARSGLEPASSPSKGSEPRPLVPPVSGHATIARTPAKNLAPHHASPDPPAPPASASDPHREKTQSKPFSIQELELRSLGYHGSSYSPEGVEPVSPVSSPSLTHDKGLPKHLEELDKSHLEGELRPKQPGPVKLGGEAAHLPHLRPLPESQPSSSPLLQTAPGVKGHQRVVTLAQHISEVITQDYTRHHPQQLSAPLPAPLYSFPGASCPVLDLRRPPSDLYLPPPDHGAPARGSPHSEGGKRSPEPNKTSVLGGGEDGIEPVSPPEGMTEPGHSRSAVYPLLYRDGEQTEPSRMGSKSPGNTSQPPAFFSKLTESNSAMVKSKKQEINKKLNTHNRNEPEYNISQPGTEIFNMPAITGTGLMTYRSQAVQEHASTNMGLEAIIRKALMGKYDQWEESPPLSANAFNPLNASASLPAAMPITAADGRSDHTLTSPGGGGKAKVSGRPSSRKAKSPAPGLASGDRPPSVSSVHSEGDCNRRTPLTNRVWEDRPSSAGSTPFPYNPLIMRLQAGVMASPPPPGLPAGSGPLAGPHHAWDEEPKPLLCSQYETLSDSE

For data set [4], the target named is T2, KDAC8 (histone deacetylase 8) (Homo sapiens, UniProt Q9BY41).
T2 sequence (Q9BY41 whole entry): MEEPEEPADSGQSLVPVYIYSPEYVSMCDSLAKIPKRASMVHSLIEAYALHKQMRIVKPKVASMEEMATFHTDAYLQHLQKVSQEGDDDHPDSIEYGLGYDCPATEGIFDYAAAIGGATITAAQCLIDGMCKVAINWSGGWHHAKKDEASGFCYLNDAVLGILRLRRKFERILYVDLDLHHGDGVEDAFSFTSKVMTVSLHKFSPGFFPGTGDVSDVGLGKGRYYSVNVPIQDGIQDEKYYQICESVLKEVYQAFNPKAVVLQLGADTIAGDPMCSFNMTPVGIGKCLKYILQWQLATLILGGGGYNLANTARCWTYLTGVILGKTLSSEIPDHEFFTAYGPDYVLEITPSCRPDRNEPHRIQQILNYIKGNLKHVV
The data set is described as follows: (§2) Inhibition of full length human C-terminal His-tagged KDAC8 expressed in baculovirus expression system at 30 uM using (FAM)-labeled peptide as substrate after 60 mins by microfluidic assay relative to control. Particulars: probe (FAM)-labeled peptide.

Data set [5] addresses T3, KDAC6 (protein deacetylase HDAC6) (Homo sapiens, UniProt Q9UBN7).
T3 sequence (Q9UBN7 whole entry): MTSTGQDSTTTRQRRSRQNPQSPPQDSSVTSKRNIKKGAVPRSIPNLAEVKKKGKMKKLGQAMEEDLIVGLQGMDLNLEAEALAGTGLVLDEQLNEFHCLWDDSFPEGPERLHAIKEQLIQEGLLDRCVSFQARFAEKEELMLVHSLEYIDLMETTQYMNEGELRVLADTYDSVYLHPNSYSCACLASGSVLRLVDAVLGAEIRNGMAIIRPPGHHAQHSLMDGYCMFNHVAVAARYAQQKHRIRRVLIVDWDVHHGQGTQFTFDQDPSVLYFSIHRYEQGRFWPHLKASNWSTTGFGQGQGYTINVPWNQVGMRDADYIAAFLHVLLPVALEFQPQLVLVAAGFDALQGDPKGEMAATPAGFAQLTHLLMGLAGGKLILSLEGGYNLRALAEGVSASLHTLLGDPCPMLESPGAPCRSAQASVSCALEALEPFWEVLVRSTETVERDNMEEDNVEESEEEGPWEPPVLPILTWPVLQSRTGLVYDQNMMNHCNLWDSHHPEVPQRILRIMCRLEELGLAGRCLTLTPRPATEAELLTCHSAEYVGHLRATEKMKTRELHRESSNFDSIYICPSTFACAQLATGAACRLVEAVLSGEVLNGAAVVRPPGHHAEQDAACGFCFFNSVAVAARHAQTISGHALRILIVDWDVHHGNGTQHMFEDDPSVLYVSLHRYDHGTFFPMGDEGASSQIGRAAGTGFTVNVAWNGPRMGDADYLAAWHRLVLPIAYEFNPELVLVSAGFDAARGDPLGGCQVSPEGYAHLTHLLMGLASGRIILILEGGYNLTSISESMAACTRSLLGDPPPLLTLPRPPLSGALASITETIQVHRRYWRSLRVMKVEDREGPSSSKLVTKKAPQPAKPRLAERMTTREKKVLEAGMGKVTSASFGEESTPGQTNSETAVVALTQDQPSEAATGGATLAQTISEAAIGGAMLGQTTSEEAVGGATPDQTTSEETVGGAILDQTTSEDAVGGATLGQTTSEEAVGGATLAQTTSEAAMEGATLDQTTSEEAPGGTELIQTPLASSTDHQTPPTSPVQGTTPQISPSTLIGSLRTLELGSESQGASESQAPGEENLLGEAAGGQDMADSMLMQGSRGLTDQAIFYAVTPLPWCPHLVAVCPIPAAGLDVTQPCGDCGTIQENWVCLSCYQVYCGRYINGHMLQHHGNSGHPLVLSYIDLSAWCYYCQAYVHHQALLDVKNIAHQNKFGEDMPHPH
The data set is described as follows: (§3) Inhibition of human KDAC6 expressed in baculovirus expression system at 30 uM using FITC-Histone 4 acetylated peptide as substrate after 60 mins by microfluidic assay. Particulars: probe FITC-Histone 4 acetylated peptide.

Data set [6] concerns the target Histone deacetylase 3/Nuclear receptor corepressor 2 (HDAC3/NCoR2) (Homo sapiens, UniProt O15379+Q9Y618). Described as §1. Particulars: 1 h, 30 µM.
The next data set concerns the target T4, Histone deacetylase 8 (Homo sapiens, UniProt Q9BY41).
T4 sequence (Q9BY41 whole entry): T2 sequence (Q9BY41 whole entry)
The description is as §2. Particulars: 1 h, 30 µM.

The target in data set [7] is T5, Protein deacetylase HDAC6 (Homo sapiens, UniProt Q9UBN7).
T5 sequence (Q9UBN7 whole entry): T3 sequence (Q9UBN7 whole entry)
The data set is described as §3. Particulars: 1 h, 30 µM.

The text below walks through data of ChEMBL document CHEMBL4014283, “Structural insights of SmKDAC8 inhibitors: Targeting Schistosoma epigenetics through a combined structure-based 3D QSAR, in vitro and synthesis strategy” (Bioorg Med Chem, 2017).

Active and inactive are the calls of the source. The calls are words filed in the database; no cut-off is given here.

By inhibition is commonly meant the share of the control response that was lost under treatment.

KDAC1 (histone deacetylase 1), sequence (Q13547 whole entry): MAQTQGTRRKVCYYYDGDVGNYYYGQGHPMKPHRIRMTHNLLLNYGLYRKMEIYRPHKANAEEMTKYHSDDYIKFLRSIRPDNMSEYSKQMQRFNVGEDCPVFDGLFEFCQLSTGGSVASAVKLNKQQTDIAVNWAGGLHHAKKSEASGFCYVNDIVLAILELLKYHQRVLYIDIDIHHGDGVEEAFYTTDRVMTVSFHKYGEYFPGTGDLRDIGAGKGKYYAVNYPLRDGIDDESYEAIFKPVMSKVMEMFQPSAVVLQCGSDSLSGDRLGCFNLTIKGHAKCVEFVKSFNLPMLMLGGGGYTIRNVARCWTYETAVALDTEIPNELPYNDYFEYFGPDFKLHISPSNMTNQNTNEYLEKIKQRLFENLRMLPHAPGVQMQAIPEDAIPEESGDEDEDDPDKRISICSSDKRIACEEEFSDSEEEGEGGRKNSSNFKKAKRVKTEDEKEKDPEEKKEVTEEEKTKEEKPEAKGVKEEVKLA
Histone deacetylase 3/Nuclear receptor corepressor 2 (HDAC3/NCoR2), sequence (O15379 whole entry): as the sequence (O15379 whole entry, the tested form may be a part) above
Histone deacetylase 3/Nuclear receptor corepressor 2 (HDAC3/NCoR2), sequence (Q9Y618 whole entry): as the sequence (Q9Y618 whole entry, further chain, the tested form may be a part) above

On to `O=C(O)Cc1ccc(/N=N/c2c(O)c(C(=O)O)cc3ccccc23)cc1`, for which the inhibition at 1 h, 30 µM turned out to be 2% in data set [1], 1% in data set [3], 19% in data set [4] and 3% in data set [5]. The inhibition entry in data set [2] was “inactive”.

Turning to `FC(F)(F)c1cccc(OCC2CN=C(S)O2)c1` (stereo not given), the inhibition at 1 h, 30 µM in data set [1] was determined as 2%; in data set [3], 6%; in data set [4] it was 16%; in data set [5], 3%. This compound also yielded an inhibition in data set [2] of 2%.

In the case of `CCOC(=O)c1[nH]c(C(=O)O)c(OC(=O)CC)c1C`, the inhibition at 1 h, 30 µM in data set [1] is 5%. Also, the inhibition entry in data set [2] was “inactive”. In addition, the “inhibition (INH)” value (in data set [6]; at Histone deacetylase 8; in data set [7]) was “Not Active” each time.

For the compound `CCOC(=O)Cc1cc(=O)[nH]n(-c2ccccc2)c1=O`, the inhibition at 1 h, 30 µM in data set [1] came out at 2%; in data set [3], 1%; in data set [4] it was 3%; in data set [5], 2%. Moreover, the inhibition in data set [2] turned out to be 1%.
